The results in this text go back to patent US20240315219A1, “ANIMAL MODEL FOR DISEASES ASSOCIATED WITH ABSENCE OR REDUCTION OF SOCIAL DOMINANCE, AND PHARMACEUTICAL COMPOSITION FOR PREVENTING OR TREATING DISEASES” (ADEL, Inc., priority 2021, published 2024).

The test system of experiment [1] is CRTC3 KO mice. The experiment is described as follows: Tube dominance test, CRTC3 KO mice housed with WT mice. The class given is in vivo, mouse. As to the method: (§1) The apparatus for the tube dominance test was made of a transparent plastic tube with a length of 30 cm and an inner diameter of 2.5 cm. To allow the mice to adapt to passing through the inside of the tube, the respective mice were trained to pass across the tube alternately on both sides for two or three consecutive days. During the training period, care was taken to ensure that the mice passed through the tube as naturally as possible without causing stress. This test was performed after identifying that all mice could freely pass through the tube without stress.
During the dominance test period, a total of 2 mice, one at each end of the tube, were placed to meet in the middle of the tube. In a case where one mouse pushed the other mouse out of the tube, one (1) winning point was earned. The test was repeated three times. […] For each test, win or loss was determined by winning points. […]
First, starting at 1 month of age, the CRTC3 KO mice and the WT mice were housed in one group and raised together for 2 months. […] To determine changes in ranking of the mice in the group, social dominance ranking was evaluated by a tube dominance test daily for 15 days starting at 3 months of age. The respective mice in the group were tested in turn, and dominance ranking of the mice in the group was determined based on their winning points. […]

The subject of experiment [2] is C57BL/6 mice. The experiment is described as follows: Tube dominance test, lowest-ranked mouse in C57BL/6 mouse group. It counts as in vivo. The settings on record: lowest-ranked C57BL/6 mouse, intracerebroventricular via osmotic pump. As to the method:
as §1
During the dominance test period, a total of 2 mice, one at each end of the tube, were placed to meet in the middle of the tube. In a case where one mouse pushed the other mouse out of the tube, one (1) winning point was earned. The test was repeated three times. For example, in a case where one mouse earned 2 or 3 winning points, the mouse was considered a winner and the other mouse was considered a loser. For the mice housed in the same cage, the tube test was performed on three mice in turn to determine social dominance ranking. For example, for mouse no. 1, the tube test was performed with mouse nos. 2 and 3. In a case where mouse no. 1 wins both mice, it is ranked first. Meanwhile, in a case where mouse no. 2 loses to mouse no. 1 and wins mouse no. 3, it is ranked second. In the two tests, mouse no. 3 is ranked third since it loses to both mice. For each test, win or loss was determined by winning points.
First, starting at 1 month of age, the CRTC3 KO mice and the WT mice were housed in one group and raised together for 2 months. This allowed social ranking to be naturally formed among the mice in the same group. To determine changes in ranking of the mice in the group, social dominance ranking was evaluated by a tube dominance test daily for 15 days starting at 3 months of age. The respective mice in the group were tested in turn, and dominance ranking of the mice in the group was determined based on their winning points. […]

The subject of experiment [3] is wild-type rats. The experiment in a line: Brain fMRI, resting-state functional connectivity (rsFC) in wild-type rats. It counts as in vivo, rat. The following applies: SD rats, vs PBS group. As to the method:
To identify which regions of the brain are affected by administration of AREG-EGF, fMRI was performed on wild-type rats injected with AREG-EGF. The rats having received PBS as a control and the rats having received AREG-EGF were imaged with fMRI one month later, in which interaction signals between various regions in the brain were checked. Specifically, the rats, which are SD (Spraque Dawley) rat species, were eight, 5- to 6-week-old male rats purchased from Orient Bio. AREG-EGF was administered to the rats by intracerebroventricular injection (ICV) on Weeks 6 to 7 after the purchase, and fMRI imaging was performed 21 days after the administration. The fMRI imaging was performed in such a way that first imaging was performed on an anesthetized rat under normal conditions (pre-state), and then fMRI re-imaging was performed on the same rat by placing cotton soaked in the urine of another rat, which it had never encountered, so that the rat being imaged can sniff the cotton (post-state). For rodents, social responses such as social identification occur through urine marking done by the other individuals. Thus, urine from an unfamiliar rat was used to elicit social responses. For specific methods of administering AREG-EGF and performing MRI analysis, see Experimental Examples 2.1 and 3. […]

For the substance “AREG-EGF: Peptide of the EGF domain of amphiregulin, SEQ ID NO: 13, from Peptron (KKNPCNAEFQNFCIHGECKYIEHLEAVTCKCQQEYFGERCGEK; AREG-EGF Peptide)”, the “cages in which changes (increase) in social dominance ranking were observed after administration” value in experiment [1] (CRTC3 KO mice with low ranking, housed with WT mice, intracerebroventricular via osmotic pump) amounted to 50%. Further, the “winning points after vs before administration” value in experiment [1] (CRTC3 KO mice, ICV osmotic pump) is “changes in winning points and increases in tube test ranking”. For the same substance, the “cages in which ranking of the lowest-ranked mouse increased after administration” value in experiment [2] came out at 80%. Further, the “rsFC between PFC and PC (average z-transformed correlation coefficient)” value in experiment [3] (ICV osmotic pump, fMRI 21 days after) is given as “significantly high activity”. The “rsFC seed-correlation spatial map, seed Cg1/2 (24b′/24a′)” value in experiment [3] (ICV) is reported as “significantly enhanced region was observed in PC”.

With “AREG-HB: Peptide of the heparin-binding domain of amphiregulin, SEQ ID NO: 14, from Peptron; control (SVRVEQVVKPPQNKTESENTSDKPKRKKKGGKNGKNRRNRK; AREG-HB Peptide) [reference compound]”, in experiment [2], the “cages in which ranking of the lowest-ranked mouse increased after administration” value is given as 10%.

Regarding “mEGF: Recombinant mouse EGF from R&D Systems, SEQ ID NO: 12; control (NSYPGCPSSYDGYCLNGGVCMHIESLDSYTCNCVIGYSGDRCQTRDLRWWELR; Mouse EGF Protein; listed as Mus musculus) [reference compound]”, the “cages in which ranking of the lowest-ranked mouse increased after administration” value in experiment [2] was 0%.
